Earlier results as cited in US20210177818A1, “Antibacterial Formulation for Treating and Prophylactic use in Bacterial, and Fungal Urinary Bladder Infections” (priority 2019, published 2021).

Conditions: in acetone, acetic acid, or ethanol

SMILES: CCCCCCCCCCCCCCCC[n+]1ccccc1 [Cetylpyridinium chloride, 1-hexa-decyl pyridinium chloride]
- solubility: insoluble
